These results are taken from publication PMC5571344, “Identification and Mode of Action of a Plant Natural Product Targeting Human Fungal Pathogens” (Antimicrobial Agents and Chemotherapy, 2017).

Assay in all cases: microbe, parasite or virus in culture
The subject of test [1] is Pichia kudriavzevii C. krusei. Set-up: species or system Candida strains; broth microdilution antifungal susceptibility according to EUCAST protocols, growth inhibition MIC. Particulars: DSY2293, EUCAST, read-out: MIC Fluconazole. The procedure: (§1) The results of [compound left out] susceptibility assays with several clinically relevant Candida species are shown on Fig. 2B. All strains, except C. glabrata, were highly susceptible to [compound left out]. […] [compound left out] […] The yeast and bacterial strains used in the study are listed in Table S1 in the supplemental material. NPs were dissolved in DMSO to 10 μg/ml. [compound left out] [compound left out] was purchased from Phytolab (GmbH), dissolved in DMSO at a 2 mM concentration, heated for 20 min at 50°C for solubilization, and stored at −20°C until usage.

Test [2] deals with C. albicans. On the set-up: species or system Candida strains; broth microdilution antifungal susceptibility according to EUCAST protocols, growth inhibition MIC. Conditions: Candida albicans, EUCAST, read-out: MIC Fluconazole. As to the method:
as §1

Test [3] relates to C. tropicalis. On the set-up: species or system Candida strains; broth microdilution antifungal susceptibility according to EUCAST protocols, growth inhibition MIC. Conditions: Candida tropicalis, EUCAST, read-out: MIC Fluconazole. The procedure:
as §1

The test system of test [4] is Pichia kudriavzevii C. krusei. On the set-up: species or system Candida strains; broth microdilution antifungal susceptibility in YNB buffered at pH 7.0, growth inhibition MIC. The procedure: as §1
Test [5] deals with C. albicans. Set-up: species or system Candida strains; broth microdilution antifungal susceptibility in YNB buffered at pH 7.0, growth inhibition MIC. Conditions: Candida albicans, YNB pH 7.0. The procedure:
as §1

The subject of test [6] is C. tropicalis. Set-up: species or system Candida strains; broth microdilution antifungal susceptibility in YNB buffered at pH 7.0, growth inhibition MIC. Conditions: Candida tropicalis, YNB pH 7.0. As to the method: as §1

SMILES strings stand for the structures. Converted amounts (≈) assume the structure as drawn. Where two headings read alike, the source gives them in different places. A value given as a limit tells only on which side of the number the result lay.

As to `OC(Cn1cncn1)(Cn1cncn1)c1ccc(F)cc1F` [Fluconazole], the MIC in test [1] was determined as 32 µg/mL (≈ 104 µM); with C. albicans [2] (DSY227) it was 0.5 µg/mL (≈ 1.63 µM); with C. albicans [2] (DSY288), 1 µg/mL (≈ 3.27 µM); with C. albicans [2] (DSY297), 2 µg/mL (≈ 6.53 µM); in the test on C. albicans [2] (DSY299), 0.25 µg/mL (≈ 0.816 µM); in the test on C. tropicalis [3] (DSY381), 0.5 µg/mL (≈ 1.63 µM). In addition, the MIC was determined as 2 µg/mL (≈ 6.53 µM) in the test with C. tropicalis [3] (DSY2274); 16 µg/mL (≈ 52.2 µM) in the test on C. tropicalis [3] (DSY2336); 8 µg/mL (≈ 26.1 µM) in the test on C. tropicalis [3] (DSY2374); 128 µg/mL (≈ 418 µM) in the test with C. tropicalis [3] (DSY2825); 4 µg/mL (≈ 13.1 µM) in the test on C. tropicalis [3] (DSY2897).

On to `C[C@H]1CC[C@]2(NC1)O[C@H]1C[C@H]3[C@@H]4CC[C@H]5C[C@@H](O)CC[C@]5(C)[C@H]4CC[C@]3(C)[C@H]1[C@@H]2C` [compound 22, Tomatidine], for which the MIC in test [4] (DSY2293, YNB pH 7.0) was 0.625 µM (≈ 0.26 µg/mL); in test [4] (DSY2294, YNB pH 7.0), above 40 µM; in test [4] (DSY2302, YNB pH 7.0) it was 1.25 µM (≈ 0.52 µg/mL); against C. albicans [5] (DSY227), 0.625 µM (≈ 0.26 µg/mL); with C. albicans [5] (DSY281), 0.312 µM (≈ 0.13 µg/mL); in the test with C. albicans [5] (DSY290), 2.5 µM (≈ 1.04 µg/mL). The MIC against C. tropicalis [6] (DSY381) worked out at 0.312 µM (≈ 0.13 µg/mL); against C. tropicalis [6] (DSY826), 0.15 µM (≈ 0.0623 µg/mL); in the test with C. tropicalis [6] (DSY2274) it was 2.5 µM (≈ 1.04 µg/mL); with C. tropicalis [6] (DSY2310) it was 1.25 µM (≈ 0.52 µg/mL); with C. tropicalis [6] (DSY2825), 5 µM (≈ 2.08 µg/mL).
